Laboratory results published in ChEMBL document CHEMBL5518206, “Hit-to-Lead Identification and Validation of a Triaromatic Pleuromutilin Antibiotic Candidate” (J Med Chem, 2024).
≈ marks a conversion by molar mass, not a printed value. Calls of active or inactive are those of the source. The calls are words filed in the database; no cut-off is given here.

How the values were obtained:
[1] = Solubility of the compound in Dulbecco's PBS at 20 degree C measured after 24 hrs
[2] = Inhibition of P-gp efflux in MDCKII-MDR1 cells using calcein-AM as substrate assessed as intracellular calcein fluorescence preincubated for 15 mins followed by substrate addition and measured by fluorescence based assay; assay type: cell-based; details: Canis lupus familiaris
Staphylococcus aureus = experiment: Antibacterial activity against multi drug-resistant Staphylococcus aureus USA300 FPR3757 assessed as inhibition of visible growth incubated for 20 to 24 hrs by microbroth serial dilution assay; assay type: functional; details: time 20-24 hrs, read-out: MIC100
Streptococcus pneumoniae = experiment: Antibacterial activity against Streptococcus pneumoniae assessed as inhibition of visible growth incubated for 20 to 24 hrs by microbroth serial dilution assay; assay type: functional; details: time 20-24 hrs, read-out: MIC100
Enterococcus faecalis = experiment: Antibacterial activity against Enterococcus faecalis assessed as inhibition of visible growth incubated for 20 to 24 hrs by microbroth serial dilution assay; assay type: functional; details: time 20-24 hrs, read-out: MIC100
Enterococcus faecium [3] = experiment: Antibacterial activity against Vancomycin-resistant Enterococcus faecium assessed as inhibition of visible growth incubated for 20 to 24 hrs by microbroth serial dilution assay; assay type: functional; details: time 20-24 hrs, read-out: MIC100
Enterococcus faecium [4] = experiment: Antibacterial activity against Linezolid/Ampicillin/ciprofloxacin/Vancomycin-resistant Enterococcus faecium assessed as inhibition of visible growth incubated for 20 to 24 hrs by microbroth serial dilution assay; assay type: functional; details: time 20-24 hrs, read-out: MIC100
MDCK-MDR1 = experiment: Cytotoxicity against MDCKII-MDR1 cells assessed as cell viability at 100 uM measured by MTT assay; assay type: toxicity, cell-based, Canis lupus familiaris; details: dog, mdck-mdr1, 100 µM
in vitro [5] = details: mouse
in vitro [6] = details: mouse; remark: listed apart in the source
in vitro [7] = details: human
in vitro [8] = details: human; remark: listed apart in the source
in vitro [9] = details: pig
in vitro [10] = details: pig; remark: listed apart in the source
Escherichia coli = experiment: Antibacterial activity against Escherichia coli assessed as inhibition of visible growth incubated for 20 to 24 hrs by microbroth serial dilution assay; assay type: functional, organism-based; details: time 20-24 hrs
Listeria = experiment: Antibacterial activity against Listeria assessed as inhibition of visible growth incubated for 20 to 24 hrs by microbroth serial dilution assay; assay type: functional, organism-based; details: time 20-24 hrs
[11] = tested on: Staphylococcus epidermidis; experiment: Antibacterial activity against Staphylococcus epidermidis assessed as inhibition of visible growth incubated for 20 to 24 hrs by microbroth serial dilution assay; assay type: functional, organism-based; details: time 20-24 hrs

Row | SMILES | solubility at 24 h [1] [µM] | IC50 [2] [µM] | MIC (Staphylococcus aureus) [µg/mL] | MIC (Streptococcus pneumoniae) [µg/mL] | MIC (Enterococcus faecalis) [µg/mL] | MIC (Enterococcus faecium [3]) [µg/mL] | MIC (Enterococcus faecium [4]) [µg/mL] | Activity (MDCK-MDR1) | half-life at 0.5 h, 1 µM (in vitro [5]; liver microsomes) [min] | CLint scaled at 0.5 h, 1 µM (in vitro [6]; liver microsomes) [mL/min/kg] | half-life at 0.5 h, 1 µM (in vitro [7]; liver microsomes) [min] | CLint scaled at 0.5 h, 1 µM (in vitro [8]; liver microsomes) [mL/min/kg] | further results
1 | C=C[C@]1(C)C[C@@H](OC(=O)Cn2cc(-c3ccc(Cn4cnc5c(N)ncnc54)nc3)nn2)[C@]2(C)[C@H](C)CC[C@]3(CCC(=O)[C@H]32)[C@@H](C)[C@@H]1O | 6.7 (≈ 4.38 µg/mL) | 98 | 0.03 (≈ 0.0459 µM) | 0.25 (≈ 0.382 µM) | 0.25 (≈ 0.382 µM) | 0.12 (≈ 0.184 µM) | 0.12 (≈ 0.184 µM) | Non-Toxic | 0.58 | 9510 | 1.9 | 3240 | 
2 | C=C[C@]1(C)C[C@@H](OC(=O)Cn2cc(-c3ccc([C@H](C)n4cnc5c(N)ncnc54)cc3)nn2)[C@]2(C)[C@H](C)CC[C@]3(CCC(=O)[C@H]32)[C@@H](C)[C@@H]1O |  | 81 | 0.12 (≈ 0.18 µM) | 1 (≈ 1.5 µM) | 1 (≈ 1.5 µM) | 0.5 (≈ 0.75 µM) | 0.5 (≈ 0.75 µM) |  |  |  |  |  | 
3 | O=C(O)Cc1ccccc1Nc1c(Cl)cccc1Cl [DICLOFENAC] |  |  |  |  |  |  |  |  |  |  |  |  | half-life at 0.5 h, 1 µM (in vitro [5]; microsomes): 51.7 min; CLint scaled at 0.5 h, 1 µM (in vitro [6]; microsomes): 106 mL/min/kg; half-life at 0.5 h, 1 µM (in vitro [7]; microsomes): 18.8 min; CLint scaled at 0.5 h, 1 µM (in vitro [8]; microsomes): 332 mL/min/kg; half-life at 0.5 h, 1 µM (in vitro [9]; microsomes): 37.9 min; CLint scaled at 0.5 h, 1 µM (in vitro [10]; microsomes): 145 mL/min/kg
4 | C=C[C@]1(C)C[C@@H](OC(=O)Cn2cc(-c3ccc([C@H](C)n4cnc5c(N6CCNCC6)ncnc54)cc3)nn2)[C@]2(C)[C@H](C)CC[C@]3(CCC(=O)[C@H]32)[C@@H](C)[C@@H]1O |  |  | 0.5 (≈ 0.679 µM) | 0.5 (≈ 0.679 µM) | 0.5 (≈ 0.679 µM) | 0.5 (≈ 0.679 µM) | 0.5 (≈ 0.679 µM) |  |  |  |  |  | 
5 | C=C[C@]1(C)C[C@@H](OC(=O)Cn2cc(-c3ccc(Cn4cnc5c(N6CCN(C)CC6)ncnc54)cc3)nn2)[C@]2(C)[C@H](C)CC[C@]3(CCC(=O)[C@H]32)[C@@H](C)[C@@H]1O |  | 2 |  | 0.12 (≈ 0.163 µM) |  |  | 0.12 (≈ 0.163 µM) | Non-Toxic | 1.1 | 4880 | 1.4 | 4430 | Activity (Escherichia coli): inactive; Activity (Listeria): inactive; Activity [11]: inactive; half-life at 0.5 h, 1 µM (in vitro [9]; liver microsomes): 0.5 min; CLint scaled at 0.5 h, 1 µM (in vitro [10]; liver microsomes): 10500 mL/min/kg
6 | C=C[C@]1(C)C[C@@H](OC(=O)Cn2cc(-c3ccc(Cn4cnc5c(N)ncnc54)c(O)c3)nn2)[C@]2(C)[C@H](C)CC[C@]3(CCC(=O)[C@H]32)[C@@H](C)[C@@H]1O | 2.5 (≈ 1.67 µg/mL) | > 100 | 0.03 (≈ 0.0449 µM) | 0.25 (≈ 0.374 µM) | 0.25 (≈ 0.374 µM) | 0.25 (≈ 0.374 µM) | 0.25 (≈ 0.374 µM) | Non-Toxic | 0.56 | 9770 | 1.2 | 5290 | 
